Data as given in patent US10239870B2, “Dopamine D3 receptor antagonists” (priority 2014, dated 2019).
Counter-ions that a name gives are not always drawn.

Key:
[1] = molecular target: T1, hD2 recombinant receptor (human dopamine receptor type 2, long variant, CHO-Gα16-hD2L cells) (Homo sapiens (Human), UniProt P14416); experiment: cell-based; conditions: D2 fpKi, functional pKi; antagonism of dopamine EC80 calcium response (FLIPR)
[2] = molecular target: T2, hD2 recombinant receptor (human dopamine receptor type 2, long variant, CHO-Gα16-hD2L membranes) (Homo sapiens (Human), UniProt P14416); experiment: biochemical
[3] = molecular target: T1, hD2 recombinant receptor (human dopamine receptor type 2, long variant, CHO-Gα16-hD2L cells); conditions: functional pKi; antagonism of dopamine EC80 calcium response (FLIPR)
[4] = molecular target: T2, hD2 recombinant receptor (human dopamine receptor type 2, long variant, CHO-Gα16-hD2L membranes); conditions: displacement of 0.08 nM [3H]-Spiperone

Ki [2] [nM] | SMILES | other results
251 | Cn1c(SCCCN2CC[C@]3(C[C@@H]3c3ccc(C(F)(F)F)cc3)C2)nnc1N1CCOCC1 (single isomer, unassigned) [Example 118, hydrochloride] | Ki [1]: 41.7 nM
437 | Cn1c(SCCCN2CC[C@]3(C[C@@H]3c3ccc(C(F)(F)F)cc3)C2)nnc1-c1cccc(C(N)=O)n1 (single isomer, unassigned) [Example 193] | 
1150 | Cc1ncoc1-c1nnc(CCCCN2CC[C@]3(C[C@@H]3c3ccc(C(F)(F)F)cc3)C2)n1C (single isomer, unassigned) [Example 302, hydrochloride] | 

More lines, now with the values behind:

SMILES | Ki [2] [nM] | other results
Cc1cccnc1-c1nnc(SCCCN2CC[C@]3(C[C@@H]3c3ccc(C(F)(F)F)cc3)C2)n1C (single isomer, unassigned) [Example 170, dihydrochloride] | 1410 | 
Cn1c(SCCCN2CC[C@]3(C[C@@H]3c3ccc(C(F)(F)F)cc3)C2)nnc1-c1ccnc(C#N)c1 (single isomer, unassigned) [Example 178] | 794 | 
Cn1c(SCCCN2CC[C@]3(C[C@@H]3c3ccc(C(F)(F)F)cc3F)C2)nnc1-c1ccc(C(N)=O)nc1 (single isomer, unassigned) [Example 185] | 1230 | 
Cn1c(SCCCN2CC[C@@]3(C[C@H]3c3ccc(C(F)(F)F)cc3F)C2)nnc1-c1ccc(C(N)=O)nc1 (single isomer, unassigned) [Example 186] | 4900 | 
Cn1c(SCCCN2CC[C@]3(C[C@@H]3c3ccc(C(F)(F)F)cc3)C2)nnc1-c1ccc(C(N)=O)cn1 (single isomer, unassigned) [Example 189, dihydrochloride] | 437 | 
Cn1c(SCCCN2CC[C@]3(C[C@@H]3c3ccc(C(F)(F)F)cc3F)C2)nnc1-c1ccc(C(N)=O)cn1 (single isomer, unassigned) [Example 190] | 275 | 
Cn1c(SCCCN2CC[C@]3(C[C@@H]3c3ccc(C(F)(F)F)cc3)C2)nnc1-c1ccnc(C(N)=O)c1 (single isomer, unassigned) [Example 191] | 513 | 
Cn1c(SCCCN2CC[C@]3(C[C@@H]3c3ccc(C(F)(F)F)cc3)C2)nnc1-c1cncc(C(N)=O)c1 (single isomer, unassigned) [Example 192] | 437 | 
Cc1nccnc1-c1nnc(SCCCN2CC[C@]3(C[C@@H]3c3ccc(C(F)(F)F)cc3)C2)n1C (single isomer, unassigned) [Example 227, hydrochloride] | 575 | 
Cn1c(SCCCN2CC[C@]3(C[C@@H]3c3ccc(C(F)(F)F)cc3)C2)nnc1-c1cnc(-c2cccnc2)o1 (single isomer, unassigned) [Example 263] | 589 | 
Cn1c(SCCCN2CC[C@]3(C[C@@H]3c3ccc(C(F)(F)F)cc3)C2)nnc1-c1ccc(Oc2ccccc2)nc1 (single isomer, unassigned) [Example 265] | 589 | 
Cn1c(SCCCN2CC[C@]3(C[C@@H]3c3ccc(C(F)(F)F)cc3)C2)nnc1-c1ccn2cnnc2c1 (single isomer, unassigned) [Example 269] | 1000 | 
Cn1c(SCCCN2CC[C@]3(C[C@@H]3c3ccc(C(F)(F)F)cc3)C2)nnc1-c1ccc2[nH]cnc2n1 (single isomer, unassigned) [Example 272] | 95.5 | 
Cn1c(SCCCN2CC[C@]3(C[C@@H]3c3ccc(C(F)(F)F)cc3)C2)nnc1-c1ccc(-c2nnn[nH]2)cc1 (single isomer, unassigned) [Example 273] | 3160 | 
Cc1nc(-c2ccc(-c3nnc(SCCCN4CC[C@]5(C[C@@H]5c5ccc(C(F)(F)F)cc5)C4)n3C)cc2)no1 (single isomer, unassigned) [Example 275] | 479 | 
Cn1c(SCCCN2CC[C@]3(C[C@@H]3c3ccc(C(F)(F)F)cc3)C2)nnc1-c1ccc(-n2cnnc2)cc1 (single isomer, unassigned) [Example 276] | 166 | 
Cn1c(SCCCN2CC[C@]3(C[C@@H]3c3ccc(C(F)(F)F)cc3)C2)nnc1-c1ccc(CC#N)cc1 (single isomer, unassigned) [Example 286] | 468 | 
Cn1c(OCCCN2CC[C@]3(C[C@H]3c3ccc(C(F)(F)F)cc3)C2)nnc1C1CCOCC1 (single isomer, unassigned) [Example 304, (1S,3S or 1R,3R)-5-(3-{[4-methyl-5-(oxan-4-yl)-4H-1,2,4-triazol-3-yl]oxy}propyl)-1-[4-(trifluoromethyl)phenyl]-5-azaspiro[2.4]heptane] |  | D2 fpKi [3]: <5
Cn1c(OCCCN2CC[C@@]3(C[C@@H]3c3ccc(C(F)(F)F)cc3)C2)nnc1C1CCOCC1 (single isomer, unassigned) [Example 305, (1R,3R or 1S,3S)-5-(3-{[4-methyl-5-(oxan-4-yl)-4H-1,2,4-triazol-3-yl]oxy}-propyl)-1-[4-(trifluoromethyl)phenyl]-5-azaspiro[2.4]heptane] |  | D2 fpKi [3]: <5
Cc1ncoc1-c1nnc(SCCCN2CCC[C@]3(C[C@H]3c3ccc(C(F)(F)F)cc3)C2)n1C (single isomer, unassigned) [Example 312, (1S,3R or 1R,3S)-5-(3-{[4-methyl-5-(4-methyl-1,3-oxazol-5-yl)-4H-1,2,4-triazol-3-yl]sulfanyl}propyl)-1-[4-(trifluoromethyl)phenyl]-5-azaspiro[2.5]octane] |  | D2 fpKi [3]: 8.26
Cc1ncoc1-c1nnc(SCCCN2CCC[C@@]3(C[C@H]3c3ccc(C(F)(F)F)cc3)C2)n1C (single isomer, unassigned) [Example 314, (1S,3S or 1R,3R)-5-(3-{[4-methyl-5-(4-methyl-1,3-oxazol-5-yl)-4H-1,2,4-triazol-3-yl]sulfanyl}propyl)-1-[4-(trifluoromethyl)phenyl]-5-azaspiro[2.5]octane] |  | D2 fpKi [3]: <5
Cc1ncoc1-c1nnc(SCCCN2CC[C@]3(CC[C@H]3c3ccccc3)C2)n1C (single isomer, unassigned) [Example 318, (1R,4S or 1S,4R or 1S,4S or 1R,4R)-6-(3-{[4-methyl-5-(4-methyl-1,3-oxazol-5-yl)-4H-1,2,4-triazol-3-yl]sulfanyl}propyl)-1-phenyl-6-azaspiro[3.4]octane] |  | D2 fpKi [3]: <5
Cn1c(SCCCN2CC[C@]3(CC3c3ccc(C(F)(F)F)cc3F)C2)nnc1-c1cnccn1 (stereo partly drawn) [Example 221, (1S,3S/1R,3R)-1-[2-fluoro-4-(trifluoromethyl)phenyl]-5-(3-{[4-methyl-5-(pyrazin-2-yl)-4H-1,2,4-triazol-3-yl]sulfanyl}propyl)-5-azaspiro[2.4]heptane] |  | D2 pKi [4]: 6.37; Ki [1]: 87.1 nM
Cn1c(CCCCN2CC[C@]3(CC3c3ccc(C(F)(F)F)cc3)C2)nnc1C1CCOCC1 (stereo partly drawn) [Example 296, (1S,3S/1R,3R)-5-{4-[4-methyl-5-(oxan-4-yl)-4H-1,2,4-triazol-3-yl]butyl}-1-[4-(trifluoromethyl)phenyl]-5-azaspiro[2.4]heptane] |  | Ki [1]: > 10000 nM
Cc1ncoc1-c1nnc(CCCCN2CC[C@]3(CC3c3ccc(C(F)(F)F)cc3)C2)n1C (stereo partly drawn) [Example 301, (1R,3S/1S,3R)-5-{4-[4-methyl-5-(4-methyl-1,3-oxazol-5-yl)-4H-1,2,4-triazol-3-yl]butyl}-1-[4-(trifluoromethyl)phenyl]-5-azaspiro[2.4]heptane hydrochloride] |  | Ki [1]: 1450 nM
Cn1c(OCCCN2CC[C@]3(C[C@H]3c3ccc(C(F)(F)F)cc3)C2)nnc1C1CCOCC1 [Example 303, (1S,3S/1R,3R)-5-(3-{[4-methyl-5-(oxan-4-yl)-4H-1,2,4-triazol-3-yl]oxy}-propyl)-1-[4-(trifluoromethyl)phenyl]-5-azaspiro[2.4]heptane] |  | Ki [1]: > 10000 nM
Cc1ncoc1-c1nnc(SCCCN2CCC[C@]3(C[C@@H]3c3ccc(C(F)(F)F)cc3)C2)n1C [Example 313, (1S,3S/1R,3R)-5-(3-{[4-methyl-5-(4-methyl-1,3-oxazol-5-yl)-4H-1,2,4-triazol-3-yl]sulfanyl}propyl)-1-[4-(trifluoromethyl)phenyl]-5-azaspiro[2.5]octane] |  | Ki [1]: > 10000 nM
